Measured values: the NIST ThermoML archive (doi:10.1007/s10765-010-0766-0)

Settings: Liquid, Pycnometric method

FC(F)C(F)(F)OCC(F)(F)F [2,2,2-trifluoroethyl 1,1,2,2-tetrafluoroethyl ether]
Settings | mass density [kg/m3]
279.15 K, 5663 kPa | 1535.2
280.15 K, 6663 kPa | 1534.9
280.15 K, 6673 kPa | 1534.9
281.15 K, 7673 kPa | 1534.6
281.15 K, 7685 kPa | 1534.7
282.15 K, 8685 kPa | 1534.4
282.15 K, 8696 kPa | 1534.5
283.15 K, 9695 kPa | 1534.2
283.15 K, 9705 kPa | 1534.3
284.15 K, 10704 kPa | 1534
284.15 K, 10712 kPa | 1534
285.15 K, 11710 kPa | 1533.8
285.15 K, 11717 kPa | 1533.8
286.15 K, 12714 kPa | 1533.6
286.15 K, 12720 kPa | 1533.6
287.15 K, 13718 kPa | 1533.4
287.15 K, 13722 kPa | 1533.4
288.15 K, 14719 kPa | 1533.2
288.15 K, 14722 kPa | 1533.2
289.15 K, 15719 kPa | 1533
289.15 K, 15720 kPa | 1533
290.15 K, 16716 kPa | 1532.8
290.15 K, 16717 kPa | 1532.8
291.15 K, 17711 kPa | 1532.6
291.15 K, 17712 kPa | 1532.6
292.15 K, 18703 kPa | 1532.5
292.15 K, 18704 kPa | 1532.4
293.15 K, 19694 kPa | 1532.3
294.15 K, 20683 kPa | 1532.1
295.15 K, 21669 kPa | 1531.9
296.15 K, 22653 kPa | 1531.8
296.15 K, 22654 kPa | 1531.8
297.15 K, 23636 kPa | 1531.6
298.15 K, 24616 kPa | 1531.4
298.15 K, 24617 kPa | 1531.4
299.15 K, 25595 kPa | 1531.3
299.15 K, 25596 kPa | 1531.3
300.15 K, 26572 kPa | 1531.1
300.15 K, 26573 kPa | 1531.1
301.15 K, 6294 kPa | 1484.4
301.15 K, 27548 kPa | 1531
302.15 K, 7147 kPa | 1484.2
302.15 K, 28521 kPa | 1530.9
302.15 K, 28522 kPa | 1530.9
303.15 K, 8010 kPa | 1484
303.15 K, 8015 kPa | 1484
303.15 K, 29493 kPa | 1530.7
304.15 K, 8873 kPa | 1483.8
304.15 K, 8874 kPa | 1483.8
305.15 K, 9734 kPa | 1483.6
306.15 K, 10592 kPa | 1483.4
306.15 K, 10594 kPa | 1483.4
307.15 K, 11449 kPa | 1483.2
307.15 K, 11452 kPa | 1483.2
308.15 K, 12303 kPa | 1483
308.15 K, 12308 kPa | 1483.1
309.15 K, 13157 kPa | 1482.8
309.15 K, 13163 kPa | 1482.9
310.15 K, 14009 kPa | 1482.7
310.15 K, 14016 kPa | 1482.7
311.15 K, 14859 kPa | 1482.5
311.15 K, 14867 kPa | 1482.5
312.15 K, 15708 kPa | 1482.3
312.15 K, 15718 kPa | 1482.4
313.15 K, 16557 kPa | 1482.1
313.15 K, 16566 kPa | 1482.2
314.15 K, 17405 kPa | 1482
314.15 K, 17414 kPa | 1482
315.15 K, 18252 kPa | 1481.8
315.15 K, 18260 kPa | 1481.8
316.15 K, 19097 kPa | 1481.7
316.15 K, 19105 kPa | 1481.7
317.15 K, 19942 kPa | 1481.5
317.15 K, 19949 kPa | 1481.5
318.15 K, 20785 kPa | 1481.4
318.15 K, 20791 kPa | 1481.4
319.15 K, 21626 kPa | 1481.2
319.15 K, 21632 kPa | 1481.2
320.15 K, 22467 kPa | 1481.1
320.15 K, 22471 kPa | 1481.1
321.15 K, 23306 kPa | 1480.9
321.15 K, 23311 kPa | 1480.9
322.15 K, 24144 kPa | 1480.8
322.15 K, 24148 kPa | 1480.8
323.15 K, 24980 kPa | 1480.6
323.15 K, 24983 kPa | 1480.6
324.15 K, 25816 kPa | 1480.5
324.15 K, 25819 kPa | 1480.5
325.15 K, 26650 kPa | 1480.4
325.15 K, 26653 kPa | 1480.4
326.15 K, 27482 kPa | 1480.2
326.15 K, 27484 kPa | 1480.2
327.15 K, 28313 kPa | 1480.1
327.15 K, 28315 kPa | 1480.1
328.15 K, 29144 kPa | 1480
328.15 K, 29145 kPa | 1480
329.15 K, 7678 kPa | 1420.3
329.15 K, 7689 kPa | 1420.3
329.15 K, 29973 kPa | 1479.9
329.15 K, 29975 kPa | 1479.9
330.15 K, 8385 kPa | 1420.1
330.15 K, 8394 kPa | 1420.1
331.15 K, 9091 kPa | 1420
331.15 K, 9099 kPa | 1419.9
332.15 K, 9796 kPa | 1419.8
332.15 K, 9803 kPa | 1419.8
333.15 K, 10500 kPa | 1419.6
333.15 K, 10506 kPa | 1419.6
334.15 K, 11204 kPa | 1419.5
334.15 K, 11209 kPa | 1419.5
335.15 K, 11908 kPa | 1419.3
335.15 K, 11912 kPa | 1419.3
336.15 K, 12610 kPa | 1419.2
336.15 K, 12614 kPa | 1419.1
337.15 K, 13313 kPa | 1419
337.15 K, 13315 kPa | 1419
338.15 K, 14014 kPa | 1418.8
338.15 K, 14016 kPa | 1418.8
339.15 K, 14714 kPa | 1418.7
339.15 K, 14716 kPa | 1418.7
340.15 K, 15413 kPa | 1418.5
340.15 K, 15416 kPa | 1418.5
341.15 K, 16111 kPa | 1418.4
341.15 K, 16114 kPa | 1418.4
